Data reported in patent US4918056A, “2-substituted arabinopyranosyl nucleosides and nucleotides” (priority 1986, dated 1990).

Key:
[1] = tested on: L1210/5-FU leukemia; assay: Therapeutic activity in DBA/2N mice with 5-FU resistant L1210 leukemia; format: in vivo, mouse (DBA/2N female); conditions: for Median survival: control 9; for Mean ± SD survival: control 9.25 ± 0.2
Method: In conducting the evaluations, the activity was tested against intraperitoneal (i.p.) implanted leukemia in mice.
DBA/2N female mice (20 g) were implanted i.p. with 1×10^6 L1210 leukemia cells on day 0. Mice were weighed and inspected for tumor growth and survival daily. […] Dosages varied from 1 to 800 mg/kg/day (mkd).
Survival time was measured in days after tumor implantation. % ILS (increase in life span) was based on mean survival.
Testing was followed as described in the NCI protocol and evaluation by comparison of median survival time (ST) of the treated animals to that of the control animals by the percentage increase in % ILS.
Drug resistant L1210 leukemia cell sublines were obtained from the National Cancer Institute. […] Eight mice were used as controls and five mice for each drug dosage group. Drugs were administered i.p. once per day on days 1, 2, 3, 4 and 5.

[2] = tested on: L1210 leukemia cells; assay: Reversal of L1210 growth inhibition by salvageable nucleosides; format: cell-based, mouse
Method: Reversal studies were conducted as follows: […], 85027 or 5-FdUr were added at various concentrations near their IC50 to cultures of L1210 leukemia cells, maintained in PRMI 1640 medium supplemented with 10% fetal calf serum and 16mM HEPES, pH 7.2 as described in Example 9. Nucleosides including thymidine (1×10^-5 M), uridine (1×10^-4 M), deoxyuridine ([…]), adenosine (1×10^-4 M), or guanosine (1×10^-5 M) were also added to identical drug (85024, 85027 or 5-FdUr) containing L1210 leukemia cultures. Cellular growth inhibition or its prevention by the addition of salvageable nucleosides was determined 48 hours later by counting cells using an electronic Coulter Counter.

[3] = tested on: L1210/0 leukemia; assay: Therapeutic activity against i.p. inoculated L1210/0 leukemic mice; format: in vivo, mouse (DBA/2N female); conditions: for Mean ± SD survival: control 6.7 ± 0.1; for Median survival: control 7
Method: The control group consisted of 20 mice injected with a 0.2 ml suspension of 0.5% Tween 80 in saline.

[4] = tested on: M5076 sarcoma; assay: Therapeutic activity in C57/B16 mice with s.c. M5076 sarcoma; format: in vivo, mouse (C57/B16 female); conditions: days 3-7; for % ILS (increase in life span): based on median survival; for Half Maximal Tumor Volume: control 32; for Median survival: control 37
Method: (§1) The therapeutic activity of 85024 was evaluated in C57/B16 female mice implanted s.c. with either Lewis lung carcinoma or M5076 sarcoma (Table 5).
(§2) C57/B16 female mice were implanted s.c. using a trochar on day 0 with a 50 mg piece of either Lewis lung carcinoma of M5076 sarcoma. Drugs were administered i.p. once daily on days 3, 4, 5, 6 and 7. Tumor size (two perpendicular diameters) was measured with calipers and volume was estimated algebraically. Survival was monitored daily for 60 days. % ILS (increase in life span) is based on median survival.

[5] = tested on: L1210 leukemia cells; assay: L1210 leukemia cell growth inhibition (48 hr, Coulter counter); format: cell-based, mouse; conditions: Mus musculus, L1210, RPMI 1640, 10% fetal calf serum
Method: Compounds 85024, 85023, 85058, 85027 and 85060 having a glycosidic linkage between the 2'carbon of the arabinose (in pyranose configuration) and base were evaluated for their growth inhibitory action on L1210 leukemia cells maintained in RPMI 1640 medium supplemented with 10% fetal calf serum and 16 mM HEPES, pH 7.2. Cellular growth inhibition was determined by incubating […] for 48 hr in 2 ml of media containing varying concentrations of drugs. Cell growth inhibition (50% growth inhibitory concentration, IC50) was determined after counting cells with a Coulter counter (Bernacki et al., Cancer Res. 45, 695, 1985). Drug concentrations which inhibited cell growth by 50% (IC50) are listed for each compound in Table 1.

[6] = tested on: Lewis lung carcinoma; assay: Therapeutic activity in C57/B16 mice with s.c. Lewis lung carcinoma; format: in vivo, mouse (C57/B16 female); conditions: for % ILS (increase in life span): based on median survival; for Median survival: control 22
Method: as §1, §2

With COC1OC[C@@H](OC(C)=O)[C@@H](OC(C)=O)[C@]1(F)n1ccc(=O)[nH]c1=O (stereo partly drawn) [compound 85024, Methyl 3,4-di-0-acetyl-2-deoxy-2(R)-[1H,3H-2,4-dioxo-1-pyrimidinyl]-2-fluoro-α-D-arabinopyranoside [5a] and methyl 3,4-di-0-acetyl-2-deoxy-2(R)-[1H,3H-2,4-dioxo-1-pyrimidinyl]-2-fluoro-β-D-arabinopyranoside [6a]] the “Mean Animal Weight” value ([1]; 100 mkd × 5 i.p.) was 20.6 g, the “Survival Range” value ([1]; 100 mkd × 5 i.p.) was 9 to 12 days and the “% ILS (increase in life span)” value ([1]; 100 mkd × 5 i.p., P <.05) was 22%. For the same molecule, the Median survival ([1]; 100 mkd × 5 i.p.) was 11 days, the “Mean ± SD survival” value ([1]; 100 mkd × 5 i.p.) was 10.6 ± .5 days and the “Mean Animal Weight” value ([1]; 200 mkd × 5 i.p.) was 20.2 g. The “Survival Range” value ([1]; 200 mkd × 5 i.p.) was 9 to 11 days, the “% ILS (increase in life span)” value ([1]; 200 mkd × 5 i.p., P 0.1) was 11% and the Median survival ([1]; 200 mkd × 5 i.p.) was 10 days. The “Mean ± SD survival” value ([1]; 200 mkd × 5 i.p.) was 10 ± 0.4 days, the “% ILS (increase in life span)” value ([1]; 500 mkd × 5 i.p.) was -34% and the “Mean Animal Weight” value ([1]; 500 mkd × 5 i.p.) was 15.9 g. For the same molecule, the “Survival Range” value ([1]; 500 mkd × 5 i.p.) was 6 to 7 days, the Median survival ([1]; 500 mkd × 5 i.p.) was 6 days and the “Mean ± SD survival” value ([1]; 500 mkd × 5 i.p.) was 6.4 ± 0.2 days. For the same molecule, the “reversal of cellular cytotoxicity by exogenous nucleosides” value ([2]; exogenous thymidine, uridine or deoxyuridine, tissue culture) was “not reversed by exogenous thymidine, uridine or deoxyuridine”, the “effect of added nucleoside on the IC50” value ([2]; thymidine (1×10^-5 M), uridine (1×10^-4 M) or deoxyuridine (1×10^-5 M)) was less than 10% and the “Mean Animal Weight (on the day of death)” value ([3]; 50 mkd × 5 i.p.) was 23.4 g. The “Survival Range” value ([3]; 50 mkd × 5 i.p.) was 7 to 8 days, the “% ILS (increase in life span)” value ([3]; 50 mkd × 5 i.p., N.S.) was 7% and the “Mean ± SD survival” value ([3]; 50 mkd × 5 i.p.) was 7.2 ± 0.2 days. The Median survival ([3]; 50 mkd × 5 i.p.) was 7 days, the “Mean Animal Weight (on the day of death)” value ([3]; 100 mkd × 5 i.p.) was 24.0 g and the “Survival Range” value ([3]; 100 mkd × 5 i.p.) was 8-8 days. For the same molecule, the “% ILS (increase in life span)” value ([3]; 100 mkd × 5 i.p., N.S.) was 19%, the “Mean ± SD survival” value ([3]; 100 mkd × 5 i.p.) was 8.0 ± 0 days and the Median survival ([3]; 100 mkd × 5 i.p.) was 8 days. The “Mean Animal Weight (on the day of death)” value ([3]; 200 mkd × 5 i.p.) was 22.0 g, the “Survival Range” value ([3]; 200 mkd × 5 i.p.) was 8 to 10 days and the “Mean ± SD survival” value ([3]; 200 mkd × 5 i.p.) was 8.8 ± 0.2 days. For the same molecule, the Median survival ([3]; 200 mkd × 5 i.p.) was 9 days, the “% ILS (increase in life span)” value ([3]; 200 mkd × 5 i.p., p < 0.01) was 31% and the “Mean Animal Weight (on the day of death)” value ([3]; 400 mkd × 5 i.p.) was 18.8 g. For the same molecule, the “Survival Range” value ([3]; 400 mkd × 5 i.p.) was 9 to 11 days, the “Mean ± SD survival” value ([3]; 400 mkd × 5 i.p.) was 9.9 ± 0.2 days and the Median survival ([3]; 400 mkd × 5 i.p.) was 10 days. The “% ILS (increase in life span)” value ([3]; 400 mkd × 5 i.p., p < 0.01) was 48%, the “Mean Animal Weight (on the day of death)” value ([3]; 500 mkd × 5 i.p.) was 17.3 g and the “Survival Range” value ([3]; 500 mkd × 5 i.p.) was 10 to 11 days. The “Mean ± SD survival” value ([3]; 500 mkd × 5 i.p.) was 10.4 ± 0.2 days, the Median survival ([3]; 500 mkd × 5 i.p.) was 10 days and the “% ILS (increase in life span)” value ([3]; 500 mkd × 5 i.p., p < 0.01) was 55%. The “Mean Animal Weight (on the day of death)” value ([3]; 600 mkd × 5 i.p.) was 16.8 g, the “Survival Range” value ([3]; 600 mkd × 5 i.p.) was 7 to 11 days and the “Mean ± SD survival” value ([3]; 600 mkd × 5 i.p.) was 9.4 ± 0.8 days. For the same molecule, the Median survival ([3]; 600 mkd × 5 i.p.) was 10 days, the “% ILS (increase in life span)” value ([3]; 600 mkd × 5 i.p., p < 0.5) was 40% and the “Mean Animal Weight (on the day of death)” value ([3]; 700 mkd × 5 i.p.) was 16.6 g. The “Survival Range” value ([3]; 700 mkd × 5 i.p.) was 4 to 7 days, the “% ILS (increase in life span)” value ([3]; 700 mkd × 5 i.p., N.S.) was -10% and the “Mean ± SD survival” value ([3]; 700 mkd × 5 i.p.) was 6.0 ± 0.6 days. For the same molecule, the Median survival ([3]; 700 mkd × 5 i.p.) was 7 days, the “% ILS (increase in life span)” value ([3]; 800 mkd × 5 i.p.) was -70% and the “Mean Animal Weight (on the day of death)” value ([3]; 800 mkd × 5 i.p.) was 19.5 g. For the same molecule, the “Survival Range” value ([3]; 800 mkd × 5 i.p.) was 2-2 days, the “Mean ± SD survival” value ([3]; 800 mkd × 5 i.p.) was 2.0 ± 0 days and the Median survival ([3]; 800 mkd × 5 i.p.) was 2 days. For the same molecule, the “dose of maximal therapeutic efficacy” value ([3]; 5 day i.p. schedule, 1 dose per day days 1-5) was 500 mg/kg/day, the “mortality due to drug toxicity” value ([3]; i.p. days 1-5, 800 mkd) was “eventual mortality due to drug toxicity” and the host toxicity ([3]; i.p. days 1-5, above 500 mkd, evidenced by increased weight loss) was “increased host toxicity”. For the same molecule, the “effect on tumor size” value ([4]; 400 mg/kg/day i.p.) was “statistically significant decrease in tumor size”, the “% ILS (increase in life span)” value ([4]; 50 mkd × 5 i.p.) was 0% and the “Half Maximal Tumor Volume” value ([4]; 50 mkd × 5 i.p., p < 0.05) was 35 days. The Median survival ([4]; 50 mkd × 5 i.p.) was 36 days, the “Survival Range” value ([4]; 50 mkd × 5 i.p., one animal survived for 60 days but bore a large, frank tumor) was 34 to 60 days and the “Survival Range” value ([4]; 200 mkd × 5 i.p.) was 36 to 42 days. For the same molecule, the “% ILS (increase in life span)” value ([4]; 200 mkd × 5 i.p.) was 0%, the “Half Maximal Tumor Volume” value ([4]; 200 mkd × 5 i.p.) was 35 days and the Median survival ([4]; 200 mkd × 5 i.p.) was 37 days. For the same molecule, the “Survival Range” value ([4]; 400 mkd × 5 i.p.) was 33 to 47 days, the “% ILS (increase in life span)” value ([4]; 400 mkd × 5 i.p.) was 14% and the “Half Maximal Tumor Volume” value ([4]; 400 mkd × 5 i.p., p < 0.05) was 38 days. For the same molecule, the Median survival ([4]; 400 mkd × 5 i.p.) was 42 days, the IC50 [5] was 55 µM and the “effect on tumor size” value ([6]; 400 mg/kg/day i.p., days 3-7) was “statistically significant decrease in tumor size”. The “increase of median day to reach half maximal tumor size” value ([6]; 400 mg/kg/day i.p., days 3-7, normalized for animal weight, from day 19 to 23) was 4 days, the “Survival Range” value ([6]; 50 mkd × 5 i.p., days 3-7) was 24 to 31 days and the “% ILS (increase in life span)” value ([6]; 50 mkd × 5 i.p., days 3-7) was 22%. The “Half Maximal Tumor Volume” value ([6]; 50 mkd × 5 i.p., days 3-7, control 19, p < 0.05) was 20.5 days, the Median survival ([6]; 50 mkd × 5 i.p., days 3-7) was 27 days and the “Survival Range” value ([6]; 200 mkd × 5 i.p., days 3-7) was 17 to 32 days. The “% ILS (increase in life span)” value ([6]; 200 mkd × 5 i.p., days 3-7) was 40%, the “Half Maximal Tumor Volume” value ([6]; 200 mkd × 5 i.p., days 3-7, control 19) was 21 days and the Median survival ([6]; 200 mkd × 5 i.p., days 3-7) was 31 days. The “Survival Range” value ([6]; 400 mkd × 5 i.p., days 3-7) was 21 to 31 days, the “% ILS (increase in life span)” value ([6]; 400 mkd × 5 i.p., days 3-7, p < 0.05) was 40% and the “Half Maximal Tumor Volume (median day to reach half maximal tumor size)” value ([6]; 400 mkd × 5 i.p., days 3-7, control 19, p < 0.05) was 23 days. For the same molecule, the Median survival ([6]; 400 mkd × 5 i.p., days 3-7) was 31 days and the “effect on lifespan and tumor size” value ([6]; s.c. solid tumors (Lewis lung carcinoma or M5076 sarcoma)) was “increased their lifespan and significantly decreased tumor size”.
